Reference: patent US20060100255A1, “Substituted indolealkanoic acids derivative and formulations containing same for use in the treatment of diabetic complications” (priority 2002, published 2006)

How the values were obtained:
[1] = tested on: sorbitol levels in the sciatic nerve and lens; assay: 8-day STZ diabetic rat model, sorbitol lowering versus known ARIs; assay type: in vivo; details: 10 mg/kg/day
From the text: 3-[(4,5,7-trifluoro-1,3-benzothiazol-2-yl)methyl]-1H-indol-1-yl}acetic acid monohydrate is compared to the known […] inhibitors (ARI) zenarestat and zopolrestat in an 8-day STZ diabetic rat model.

[2] = tested on: nerve conduction velocity (NCV) in the sciatic nerve; assay: 3 month study in STZ-diabetic rats, nerve conduction velocity; assay type: in vivo, rat; details: 3 months treatment
[3] = tested on: Tissue Sorbitol Levels; assay: tissue sorbitol levels in the STZ induced diabetic rat, 30 and 90 day studies; assay type: in vivo
From the text: (§1) The test methods employed to determine the efficacy are essentially those of Mylari, et al., J. Med. Chem. 34: 108, 1991.
[(4,5,7-trifluoro-1,3-benzothiazol-2-yl)methyl]-1H-indol-1-yl}acetic acid monohydrate in reducing Tissue Sorbitol Levels in the STZ Induced Diabetic Rat

[4] = tested on: NCV; assay: comparison with zenarestat and zopolrestat, inhibition of decline in NCV; assay type: in vivo
From the text: 3-[(4,5,7-trifluoro-1,3-benzothiazol-2-yl)methyl]-1H-indol-1-yl}acetic acid monohydrate compares very favorably with the ability of zenarestat and zopolrestat to inhibit the decline in NCV. […]

[5] = tested on: sorbitol accumulation in the sciatic nerve; assay: sorbitol accumulation in sciatic nerve of streptozotocin-induced diabetic rats, 15 day study; assay type: in vivo, rat
From the text: as §1

[6] = tested on: nerve conduction velocity (NCV) in the sciatic nerve; assay: 4-week study in STZ-diabetic rats, loss of nerve conduction velocity; assay type: in vivo, rat

O=C(O)Cn1cc(Cc2nc3c(F)c(F)cc(F)c3s2)c2ccccc21 [Example 1, 3-(4,5,7-Trifluorobenzothiazol-2-yl)methyl-indole-N-acetic Acid, monohydrate] was tested, and the Lens sorbitol lowering [1] was 25-42%, the “Sciatic Nerve sorbitol lowering” value [1] was 100% and the “Improvement in NCV” value ([2]; 5 mg/kg/day) was 50%. For the same molecule, the “Improvement in NCV” value ([2]; 10 mg/kg/day) was 68%, the “Improvement in NCV” value ([2]; 25 mg/kg/day) was 105% and the “% Sorbitol Reduction, Lens” value ([3]; 30 days, 5 mg/kg/day) was 88%. For the same molecule, the “% Sorbitol Reduction, Sciatic Nerve” value ([3]; 30 days, 5 mg/kg/day) was 100%, the “% Sorbitol Reduction, Lens” value ([3]; 30 days, 10 mg/kg/day) was 90% and the “% Sorbitol Reduction, Sciatic Nerve” value ([3]; 30 days, 10 mg/kg/day) was 100%. For the same molecule, the “% Sorbitol Reduction, Lens” value ([3]; 30 days, 25 mg/kg/day) was 95%, the “% Sorbitol Reduction, Sciatic Nerve” value ([3]; 30 days, 25 mg/kg/day) was 100% and the “% Sorbitol Reduction, Kidney Cortex” value ([3]; 90 days, 5 mg/kg/day) was 33%. For the same molecule, the “% Sorbitol Reduction, Kidney Medulla” value ([3]; 90 days, 5 mg/kg/day) was 36%, the “% Sorbitol Reduction, Retina” value ([3]; 90 days, 5 mg/kg/day) was 89% and the “% Sorbitol Reduction, Sciatic Nerve” value ([3]; 90 days, 5 mg/kg/day) was 100%. The “% Sorbitol Reduction, Kidney Cortex” value ([3]; 90 days, 10 mg/kg/day) was 25%, the “% Sorbitol Reduction, Kidney Medulla” value ([3]; 90 days, 10 mg/kg/day) was 47% and the “% Sorbitol Reduction, Retina” value ([3]; 90 days, 10 mg/kg/day) was 99%. The “% Sorbitol Reduction, Sciatic Nerve” value ([3]; 90 days, 10 mg/kg/day) was 100%, the “% Sorbitol Reduction, Kidney Cortex” value ([3]; 90 days, 25 mg/kg/day) was 45% and the “% Sorbitol Reduction, Kidney Medulla” value ([3]; 90 days, 25 mg/kg/day) was 58%. The “% Sorbitol Reduction, Retina” value ([3]; 90 days, 25 mg/kg/day) was 96%, the “% Sorbitol Reduction, Sciatic Nerve” value ([3]; 90 days, 25 mg/kg/day) was 100% and the “Improvement in NCV” value ([4]; 25 mg/kg/day, study 4 weeks, treatment 3 weeks) was 79%. For the same molecule, the “ED50, sorbitol accumulation in rat sciatic nerve” value ([5]; 15 day study) was 1.3 mg/kg/day, the “inhibition of sorbitol accumulation, rat sciatic nerve” value ([5]; 15 day study, 4.8 mg/kg/day) was 100% and the changes in fructose ([5]; STZ diabetic rat tissues) was “levels were reduced”. For the same molecule, the changes in mysinositol ([5]; STZ diabetic rat tissues) was “levels were increased”, the “inhibition of decline of nerve conduction velocity (NCV) in the sciatic nerve” value (from here on “inhibition of decline … in the sciatic nerve”) ([6]; 5 mg/kg/day) was 14% and the “inhibition of decline … in the sciatic nerve” value ([6]; 10 mg/kg/day) was 41%. For the same molecule, the “inhibition of decline … in the sciatic nerve” value ([6]; 25 mg/kg/day) was 79%.

In the case of O=C(O)Cn1c(=O)n(Cc2ccc(Br)cc2F)c(=O)c2ccc(Cl)cc21 [zenarestat], the Lens sorbitol lowering [1] is reported as 0%, the “Sciatic Nerve sorbitol lowering” value [1] is reported as 52% and the “Improvement in NCV” value ([4]; 32 mg/kg/day, study 2 weeks, treatment 2 weeks) is reported as 48%.

O=C(O)Cc1nn(Cc2nc3cc(C(F)(F)F)ccc3s2)c(=O)c2ccccc12 [zopolrestat] was tested, and the Lens sorbitol lowering [1] was 0%, the “Sciatic Nerve sorbitol lowering” value [1] was 71% and the “Improvement in NCV” value ([4]; 25 mg/kg/day, study 4 weeks, treatment 4 weeks) was 43%.
